Test results as given in patent US10336739B2, “4-hydroxy-3-(heteroaryl)pyridine-2-one APJ agonists” (BRISTOL-MYERS SQUIBB COMPANY, priority 2015, dated 2019).

Target: human APJ receptor (Homo sapiens (Human), UniProt P35414)
Test: Intracellular cAMP accumulation assay (APJ hcAMP, HTRF)
Type: cell-based
Conditions: HEK293 cells stably expressing human APJ receptor; inhibition of forskolin-mediated cAMP production; read-out: Human APJ cAMP EC50 Potency range
How it was run: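 HEK293 cells stably expressing human APJ, 5,000 per well, exposed to compound with […] IBMX and 2 μM forskolin for 30 minutes at room temperature. cAMP measured by HTRF after lysis and 60 min detection incubation. EC50 from sigmoidal variable-slope fits of inhibition of forskolin-induced cAMP, quantified against a cAMP standard curve.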

human APJ receptor, sequence (P35414 whole entry): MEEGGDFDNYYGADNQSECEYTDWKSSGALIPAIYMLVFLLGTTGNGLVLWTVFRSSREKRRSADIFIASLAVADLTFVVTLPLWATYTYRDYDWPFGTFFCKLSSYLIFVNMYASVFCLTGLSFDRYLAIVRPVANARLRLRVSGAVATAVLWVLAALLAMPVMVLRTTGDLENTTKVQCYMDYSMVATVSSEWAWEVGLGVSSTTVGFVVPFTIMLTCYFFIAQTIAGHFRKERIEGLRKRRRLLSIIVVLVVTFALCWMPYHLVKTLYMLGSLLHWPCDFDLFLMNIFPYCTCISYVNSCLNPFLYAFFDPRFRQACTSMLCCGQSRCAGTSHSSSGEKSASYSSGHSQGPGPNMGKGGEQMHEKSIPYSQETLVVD

Q: How did the EC50 turn out when `CCCCc1[nH]c(=O)c(-c2nnc(Cc3csc(C)n3)o2)c(O)c1-c1cccc(CC)c1` [Example 137, 6-butyl-5-(3-ethylphenyl)-4-hydroxy-3-{5-[(2-methyl-1,3-thiazol-4-yl)methyl]-1,3,4-oxadiazol-2-yl}-1,2-dihydropyridin-2-one] was run?
A: Its EC50 is 10 to 100 nM.

Same assay, conditions: HEK293 cells stably expressing human APJ receptor; inhibition of forskolin-mediated cAMP production; read-out: hAPJ cAMP EC50 Potency range

Q: With `CCCCc1nc(O)c(-c2nnc(CN3CCOCC3=O)o2)c(O)c1-c1c(OC)cccc1OC` [Example 117, 4-({5-[6-butyl-5-(2,6-dimethoxyphenyl)-2,4-dihydroxypyridin-3-yl]-1,3,4-oxadiazol-2-yl}methyl) morpholin-3-one] as the molecule, how does the EC50 read?
A: The EC50 was 0.01 to 10 nM.

Q: With `CCCCc1nc(O)c(-c2nnc(CC(=O)OC(C)(C)C)o2)c(O)c1-c1c(OC)cccc1OC` [Example 118, tert-butyl 2-{5-[6-butyl-5-(2,6-dimethoxyphenyl)-2,4-dihydroxypyridin-3-yl]-1,3,4-oxadiazol-2-yl}acetate] as the molecule, how does the EC50 read?
A: The EC50 was 0.01 to 10 nM.

Q: Which EC50 does the source give for `CCOCc1nc(O)c(-c2nnc(Cn3ccccc3=O)o2)c(O)c1-c1c(OC)cccc1OC` [Example 119, 1-({5-[5-(2,6-dimethoxyphenyl)-6-(ethoxymethyl)-2,4-dihydroxypyridin-3-yl]-1,3,4-oxadiazol-2-yl}methyl)-1,2-dihydropyridin-2-one] here?
A: Its EC50 is 0.01 to 10 nM.

Q: With `CCCCc1nc(O)c(-c2nnc(CNC(=O)OC(C)(C)C)o2)c(O)c1-c1c(OC)cccc1OC` [Example 120, tert-butyl N-({5-[6-butyl-5-(2,6-dimethoxyphenyl)-2,4-dihydroxypyridin-3-yl]-1,3,4-oxadiazol-2-yl}methyl) carbamate] as the molecule, how does the EC50 read?
A: The EC50 was 10 to 100 nM.

Q: For `CCOCc1nc(O)c(-c2nnc(Cc3ccc(Cl)c(F)c3)o2)c(O)c1-c1c(OC)cccc1OC` [Example 122, 3-{5-[(4-chloro-3-fluorophenyl)methyl]-1,3,4-oxadiazol-2-yl}-5-(2,6-dimethoxyphenyl)-6-(ethoxymethyl) pyridine-2,4-diol], which EC50 is on record?
A: The EC50 was 0.01 to 10 nM.

Q: With `CCOCc1nc(O)c(-c2nnc(Cc3ccc(Cl)cc3F)o2)c(O)c1-c1c(OC)cccc1OC` [Example 123, 3-{5-[(4-chloro-2-fluorophenyl)methyl]-1,3,4-oxadiazol-2-yl}-5-(2,6-dimethoxyphenyl)-6-(ethoxymethyl) pyridine-2,4-diol] as the molecule, how does the EC50 read?
A: Its EC50 is 0.01 to 10 nM.

Q: `CCOCc1nc(O)c(-c2nnc(Cc3ccc(F)cn3)o2)c(O)c1-c1c(OC)cccc1OC` [Example 124, 5-(2,6-dimethoxyphenyl)-6-(ethoxymethyl)-3-{5-[(5-fluoropyridin-2-yl)methyl]-1,3,4-oxadiazol-2-yl}pyridine-2,4-diol] was tested. Which EC50 did it give?
A: The EC50 was 0.01 to 10 nM.

Q: Which EC50 does the source give for `CCOCc1nc(O)c(-c2nnc(Cn3ccnc3)o2)c(O)c1-c1c(OC)cccc1OC` [Example 125, 5-(2,6-dimethoxyphenyl)-6-(ethoxymethyl)-3-[5-(1H-imidazol-1-ylmethyl)-1,3,4-oxadiazol-2-yl]pyridine-2,4-diol] here?
A: The EC50 was 10 to 100 nM.

Q: `CCOCc1nc(O)c(-c2nnc(Cc3ccc(C)c(F)c3)o2)c(O)c1-c1c(OC)cccc1OC` [Example 126, 5-(2,6-dimethoxyphenyl)-6-(ethoxymethyl)-3-{5-[(3-fluoro-4-methylphenyl)methyl]-1,3,4-oxadiazol-2-yl}pyridine-2,4-diol] was tested. Which EC50 did it give?
A: Its EC50 is 0.01 to 10 nM.

Q: How did the EC50 turn out when `CCOCc1nc(O)c(-c2nnc(Cc3ccc(Cl)cn3)o2)c(O)c1-c1c(OC)cccc1OC` [Example 127, 3-{5-[(5-chloropyridin-2-yl)methyl]-1,3,4-oxadiazol-2-yl}-5-(2,6-dimethoxyphenyl)-6-(ethoxymethyl) pyridine-2,4-diol] was run?
A: The EC50 was 0.01 to 10 nM.

Q: How did the EC50 turn out when `CCOCc1nc(O)c(-c2nnc(Cn3ccc(-c4ccccc4)n3)o2)c(O)c1-c1c(OC)cccc1OC` [Example 128, 5-(2,6-dimethoxyphenyl)-6-(ethoxymethyl)-3-{5-[(3-phenyl-1H-pyrazol-1-yl)methyl]-1,3,4-oxadiazol-2-yl}pyridine-2,4-diol] was run?
A: The EC50 was 0.01 to 10 nM.

Q: `CCOCc1nc(O)c(-c2nnc(Cn3ccc(C(F)(F)F)n3)o2)c(O)c1-c1c(OC)cccc1OC` [Example 129, 5-(2,6-dimethoxyphenyl)-6-(ethoxymethyl)-3-(5-{[3-(trifluoromethyl)-1H-pyrazol-1-yl]methyl}-1,3,4-oxadiazol-2-yl)pyridine-2,4-diol] was tested. Which EC50 did it give?
A: The EC50 was 10 to 100 nM.

Q: With `CCOCc1nc(O)c(-c2nnc(Cc3cnn(C)c3)o2)c(O)c1-c1c(OC)cccc1OC` [Example 130, 5-(2,6-dimethoxyphenyl)-6-(ethoxymethyl)-3-{5-[(1-methyl-1H-pyrazol-4-yl)methyl]-1,3,4-oxadiazol-2-yl}pyridine-2,4-diol] as the molecule, how does the EC50 read?
A: The EC50 was 10 to 100 nM.

Q: How did the EC50 turn out when `CCOCc1nc(O)c(-c2nnc(Cc3ccc(F)nc3)o2)c(O)c1-c1c(OC)cccc1OC` [Example 131, 5-(2,6-dimethoxyphenyl)-6-(ethoxymethyl)-3-{5-[(6-fluoropyridin-3-yl)methyl]-1,3,4-oxadiazol-2-yl}pyridine-2,4-diol] was run?
A: Its EC50 is 0.01 to 10 nM.

Q: Which EC50 does the source give for `CCOCc1nc(O)c(-c2nnc(Cc3n[nH]c4ccccc34)o2)c(O)c1-c1c(OC)cccc1OC` [Example 132, 5-(2,6-dimethoxyphenyl)-6-(ethoxymethyl)-3-[5-(1H-indazol-3-ylmethyl)-1,3,4-oxadiazol-2-yl]pyridine-2,4-diol] here?
A: Its EC50 is 0.01 to 10 nM.

Q: With `CCOCc1nc(O)c(-c2nnc(Cn3nnc4ccccc43)o2)c(O)c1-c1c(OC)cccc1OC` [Example 133, 3-[5-(1H-1,2,3-benzotriazol-1-ylmethyl)-1,3,4-oxadiazol-2-yl]-5-(2,6-dimethoxyphenyl)-6-(ethoxymethyl) pyridine-2,4-diol] as the molecule, how does the EC50 read?
A: Its EC50 is 0.01 to 10 nM.

Q: How did the EC50 turn out when `CCOCc1nc(O)c(-c2nnc(Cn3ncc4ccccc43)o2)c(O)c1-c1c(OC)cccc1OC` [Example 134, 5-(2,6-dimethoxyphenyl)-6-(ethoxymethyl)-3-[5-(1H-indazol-1-ylmethyl)-1,3,4-oxadiazol-2-yl]pyridine-2,4-diol] was run?
A: Its EC50 is 0.01 to 10 nM.

Q: For `CCOCc1nc(O)c(-c2nnc(Cc3ccc(F)cc3)o2)c(O)c1-c1c(OC)cccc1OC` [Example 135, 5-(2,6-dimethoxyphenyl)-6-(ethoxymethyl)-3-{5-[(4-fluorophenyl)methyl]-1,3,4-oxadiazol-2-yl}pyridine-2,4-diol], which EC50 is on record?
A: Its EC50 is 0.01 to 10 nM.

Q: With `CCOCc1nc(O)c(-c2nnc(Cn3ccc4ccccc43)o2)c(O)c1-c1c(OC)cccc1OC` [Example 136, 5-(2,6-dimethoxyphenyl)-6-(ethoxymethyl)-3-[5-(1H-indol-1-ylmethyl)-1,3,4-oxadiazol-2-yl]pyridine-2,4-diol] as the molecule, how does the EC50 read?
A: The EC50 was 10 to 100 nM.

Q: For `CCCCc1nc(O)c(-c2nnc(Cc3noc4ccccc34)o2)c(O)c1-c1ccccc1` [Example 138, 3-[5-(1,2-benzoxazol-3-ylmethyl)-1,3,4-oxadiazol-2-yl]-6-butyl-5-phenylpyridine-2,4-diol], which EC50 is on record?
A: Its EC50 is 10 to 100 nM.

Q: For `CCCCc1nc(O)c(-c2nnc(Cc3ccc(F)c(F)c3)o2)c(O)c1-c1cccc(OC)c1` [Example 139, 6-butyl-3-{5-[(3,4-difluorophenyl)methyl]-1,3,4-oxadiazol-2-yl}-5-(3-methoxyphenyl) pyridine-2,4-diol], which EC50 is on record?
A: The EC50 was 10 to 100 nM.

Q: `CCCCc1nc(O)c(-c2nnc(Cc3ccc(F)c(F)c3)o2)c(O)c1-c1cccc(CC)c1` [Example 140, 6-butyl-3-{5-[(3,4-difluorophenyl)methyl]-1,3,4-oxadiazol-2-yl}-5-(3-ethylphenyl) pyridine-2,4-diol] was tested. Which EC50 did it give?
A: Its EC50 is 10 to 100 nM.

Q: With `CCCCc1nc(O)c(-c2nnc(Cc3ccc(F)c(F)c3)o2)c(O)c1-c1cccc(OC(F)(F)F)c1` [Example 141, 6-butyl-3-{5-[(3,4-difluorophenyl)methyl]-1,3,4-oxadiazol-2-yl}-5-[3-(trifluoromethoxy)phenyl]pyridine-2,4-diol] as the molecule, how does the EC50 read?
A: Its EC50 is 10 to 100 nM.

Q: With `CCCCc1nc(O)c(-c2nnc(Cc3ccc(F)c(F)c3)o2)c(O)c1-c1cccc(OCc2ccccc2)c1` [Example 142, 5-[3-(benzyloxy)phenyl]-6-butyl-3-{5-[(3,4-difluorophenyl)methyl]-1,3,4-oxadiazol-2-yl}pyridine-2,4-diol] as the molecule, how does the EC50 read?
A: The EC50 was 10 to 100 nM.

Q: `CCCCc1nc(O)c(-c2nnc(Cc3ccc(F)c(F)c3)o2)c(O)c1-c1cccc(CO)c1` [Example 143, 6-butyl-3-{5-[(3,4-difluorophenyl)methyl]-1,3,4-oxadiazol-2-yl}-5-[3-(hydroxymethyl)phenyl]pyridine-2,4-diol] was tested. Which EC50 did it give?
A: Its EC50 is 0.01 to 10 nM.

Q: `CCCCc1nc(O)c(-c2nnc(Cc3ccc(F)c(F)c3)o2)c(O)c1C1=CCCCC1` [Example 144, 6-butyl-5-(cyclohex-1-en-1-yl)-3-{5-[(3,4-difluorophenyl)methyl]-1,3,4-oxadiazol-2-yl}pyridine-2,4-diol] was tested. Which EC50 did it give?
A: The EC50 was 10 to 100 nM.

Q: For `CCCCc1nc(O)c(-c2nnc(Cc3ccc(F)c(F)c3)o2)c(O)c1-c1cccc(C(C)C)c1` [Example 145, 6-butyl-3-{5-[(3,4-difluorophenyl)methyl]-1,3,4-oxadiazol-2-yl}-5-[3-(propan-2-yl)phenyl]pyridine-2,4-diol], which EC50 is on record?
A: Its EC50 is 10 to 100 nM.

Q: For `CCCCc1nc(O)c(-c2nnc(Cc3ccc(F)c(F)c3)o2)c(O)c1-c1cccc(COC)c1` [Example 146, 6-butyl-3-{5-[(3,4-difluorophenyl)methyl]-1,3,4-oxadiazol-2-yl}-5-[3-(methoxymethyl)phenyl]pyridine-2,4-diol], which EC50 is on record?
A: The EC50 was 10 to 100 nM.

Same assay, conditions: hAPJ cAMP EC50 Potency range (nM), HEK293 cells stably expressing human APJ receptor; inhibition of forskolin-mediated cAMP production

Q: `CCCCc1nc(O)c(-c2nnc(CN3CCOC3=O)o2)c(O)c1-c1c(OC)cccc1OC` [Example 116, 3-({5-[6-butyl-5-(2,6-dimethoxyphenyl)-2,4-dihydroxypyridin-3-yl]-1,3,4-oxadiazol-2-yl}methyl)-1,3-oxazolidin-2-one] was tested. Which EC50 did it give?
A: The EC50 was 0.01 to 10 nM.

Q: For `CCCCc1nc(O)c(-c2nnc(CN(C)C(=O)OC(C)(C)C)o2)c(O)c1-c1c(OC)cccc1OC` [Example 121, tert-butyl N-({5-[6-butyl-5-(2,6-dimethoxyphenyl)-2,4-dihydroxypyridin-3-yl]-1,3,4-oxadiazol-2-yl}methyl)-N-methylcarbamate], which EC50 is on record?
A: Its EC50 is 10 to 100 nM.
